pIC50: −log10 of the molar value.

The assay concerns the target T1, Human ATX protein (Homo sapiens, UniProt Q13822).
T1 construct: made in house
Nature of the assay: Autotaxin (ATX) assay, FRET with FS-3 substrate. As to conditions: upper bound bins (no greater than 100, 250 or 500 nM); FS-3 2 μM, ATX 1.0 μg/mL. The format is biochemical. In a few lines:
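In-house human ATX (1.0 μg/mL final) was preincubated with compound for 30 min at room temperature in Tris buffer pH 7.4 with NaCl, KCl, CaCl2, MgCl2 and 1 mg/mL fatty acid-free BSA. FS-3 (2 μM final) was added and the plate shaken 2 h at room temperature in the dark. Fluorescence was read at ex 485/em 538 nm.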
Compound `CNC1CCN(C(=O)c2cc3n(n2)CCCN(C(=O)OCc2cc(Cl)cc(C(F)(F)F)c2)C3)C1` (centres unmarked) [Example 195] had a pIC50 not below 7.00.

As for `N#CC1CNCCN1C(=O)c1cc2n(n1)CCCN(C(=O)OCc1cc(Cl)cc(C(F)(F)F)c1)C2` (centres unmarked) [Example 196], the pIC50 is not below 7.00.

As to `O=C(OCc1cc(Cl)cc(C(F)(F)F)c1)N1CCCn2nc(C(=O)N3CC4CCC3CN4)cc2C1` (centres unmarked) [Example 197], the pIC50 was not below 7.00.

Regarding `CC1CN(C(=O)c2cc3n(n2)CCCN(C(=O)OCc2cc(Cl)cc(C(F)(F)F)c2)C3)CC(C)N1` (centres unmarked) [Example 198], the pIC50 is not below 7.00.

For `CC1CNCC(C)N1C(=O)c1cc2n(n1)CCCN(C(=O)OCc1cc(Cl)cc(C(F)(F)F)c1)C2` (centres unmarked) [Example 199], the pIC50 was not below 7.00.

`CC1(C)CN(C(=O)c2cc3n(n2)CCCN(C(=O)OCc2cc(Cl)cc(C(F)(F)F)c2)C3)CCN1` [Example 200] had a pIC50 not below 7.00.

`CN1C2CCC1CN(C(=O)c1cc3n(n1)CCCN(C(=O)OCc1cc(Cl)cc(C(F)(F)F)c1)C3)C2` [Example 201]: the pIC50 was not below 7.00.

Turning to `CNC1CN(C(=O)c2cc3n(n2)CCCN(C(=O)OCc2cc(Cl)cc(C(F)(F)F)c2)C3)C1` [Example 202], the pIC50 was not below 7.00.

Compound `O=C(OCc1cc(Cl)cc(C(F)(F)F)c1)N1CCCn2nc(C(=O)N3C4CCC3CNC4)cc2C1` [Example 203] gave a pIC50 not below 7.00.

Consider `O=C(OCc1cc(Cl)cc(C(F)(F)F)c1)N1CCCn2nc(C(=O)N3C[C@@H]4C[C@H]3CN4)cc2C1` [Example 204], for which the pIC50 was not below 7.00.

`CCC1CNCCN1C(=O)c1cc2n(n1)CCCN(C(=O)OCc1cc(Cl)cc(C(F)(F)F)c1)C2` (centres unmarked) [Example 205] had a pIC50 not below 7.00.

Take `CCC1CN(C(=O)c2cc3n(n2)CCCN(C(=O)OCc2cc(Cl)cc(C(F)(F)F)c2)C3)CCN1` (centres unmarked) [Example 206]: the pIC50 is not below 7.00.

In the case of `CC1(C)CNCCN1C(=O)c1cc2n(n1)CCCN(C(=O)OCc1cc(Cl)cc(C(F)(F)F)c1)C2` [Example 207, 3-chloro-5-(trifluoromethyl)benzyl 2-(2,2-dimethylpiperazine-1-carbonyl)-7,8-dihydro-4H-pyrazolo[1,5-a][1,4]diazepine-5(6H)-carboxylate], the negative logarithm of the IC50 (pIC50) was not below 7.00.

Compound `CC1CN(C(=O)c2cc3n(n2)CCCN(C(=O)OCc2cc(Cl)cc(C(F)(F)F)c2)C3)CCN1` (centres unmarked) [Example 208] had a pIC50 not below 7.00.

Regarding `O=C(OCc1cc(Cl)cc(C(F)(F)F)c1)N1CCCn2nc(C(=O)N3CC4CCC(C3)N4)cc2C1` [Example 209], the pIC50 was not below 7.00.

As for `O=C(OCc1cc(Cl)cc(C(F)(F)F)c1)N1CCCn2nc(C(=O)N3CCNCC34CC4)cc2C1` [Example 210], the pIC50 was not below 7.00.

As to `O=C(OCc1cc(Cl)cc(C(F)(F)F)c1)N1CCCn2nc(C(=O)N3CCN4CCC[C@H]4C3)cc2C1` [Example 211], the pIC50 is not below 7.00.

The compound `O=C1CN(C(=O)c2cc3n(n2)CCCN(C(=O)OCc2cc(Cl)cc(C(F)(F)F)c2)C3)CCN1` [Example 212] had a negative logarithm of the IC50 (pIC50) not below 7.00.

In the case of `CC1CNCCN1C(=O)c1cc2n(n1)CCCN(C(=O)OCc1cc(Cl)cc(C(F)(F)F)c1)C2` (centres unmarked) [Example 213], the pIC50 is not below 7.00.

With `O=C(OCc1cc(Cl)cc(C(F)(F)F)c1)N1CCCn2nc(C(=O)N3CCN4CCC[C@@H]4C3)cc2C1` [Example 214], the pIC50 was not below 7.00.

The compound `CN1CCN(C(=O)c2cc3n(n2)CCCN(C(=O)OCc2cc(C(F)(F)F)cc(C(F)(F)F)c2)C3)CC1` [Example 215] gave a pIC50 not below 7.00.

In the case of `CN1CCN(C(=O)c2cc3n(n2)CCCN(C(=O)OCc2cc(Cl)cc(C(F)(F)F)c2)C3)CC1` [Example 216], the pIC50 was not below 7.00.

`CN1C2CCCC1CN(C(=O)c1cc3n(n1)CCCN(C(=O)OCc1cc(Cl)cc(C(F)(F)F)c1)C3)C2` [Example 217]: the pIC50 is not below 7.00.

In turn, `CN1CCN(C(=O)c2cc3n(n2)CCCN(C(=O)OCc2cc(C(F)(F)F)cc(C(F)(F)F)c2)C3)C(C)(C)C1` [Example 218] gave a pIC50 not below 7.00.

`O=C(OCc1cc(C(F)(F)F)cc(C(F)(F)F)c1)N1CCCn2nc(C(=O)N3CCNCC34CC4)cc2C1` [Example 219] had a pIC50 not below 7.00.

Compound `CN1CCN(C(=O)c2cc3n(n2)CCCN(C(=O)OCc2cc(C(F)(F)F)cc(C(F)(F)F)c2)C3)C2(CC2)C1` [Example 220] had a pIC50 not below 7.00.

Turning to `O=C(OCc1cc(C(F)(F)F)cc(C(F)(F)F)c1)N1CCCn2nc(C(=O)N3CC4CCC(C3)N4)cc2C1` [Example 221], the pIC50 was not below 7.00.

With `CN1CC2CCC1CN2C(=O)c1cc2n(n1)CCCN(C(=O)OCc1cc(C(F)(F)F)cc(C(F)(F)F)c1)C2` (centres unmarked) [Example 222], the pIC50 is not below 7.00.

The compound `CC1CN(C(=O)c2cc3n(n2)CCCN(C(=O)OCc2cc(C(F)(F)F)cc(C(F)(F)F)c2)C3)CC(C)N1` (centres unmarked) [Example 223] gave a pIC50 not below 7.00.

As to `O=C(OCc1cc(C(F)(F)F)cc(C(F)(F)F)c1)N1CCCn2nc(C(=O)N3CC4CCC3CN4)cc2C1` (centres unmarked) [Example 224], the pIC50 is not below 7.00.

As to `CN1C2CCC1CN(C(=O)c1cc3n(n1)CCCN(C(=O)OCc1cc(C(F)(F)F)cc(C(F)(F)F)c1)C3)C2` [Example 225], the pIC50 was not below 7.00.

`O=C(O)C1CNCCN1C(=O)c1cc2n(n1)CCCN(C(=O)OCc1cc(Cl)cc(C(F)(F)F)c1)C2` (centres unmarked) [Example 226] showed a pIC50 not below 7.00.

Take `O=C(O)C1CN(C(=O)c2cc3n(n2)CCCN(C(=O)OCc2cc(Cl)cc(C(F)(F)F)c2)C3)CCN1` (centres unmarked) [Example 227]: the pIC50 is not below 7.00.

`O=C(OCc1cc(Cl)cc(Cl)c1)N1CCCn2nc(C(=O)N3CCN4CCC[C@@H]4C3)cc2C1` [Example 228] gave a pIC50 not below 7.00.

With `CCC1(CC)CN(C)CCN1C(=O)c1cc2n(n1)CCCN(C(=O)OCc1cc(Cl)cc(C(F)(F)F)c1)C2` [Example 229], the negative logarithm of the IC50 (pIC50) was not below 7.00.

`CN1C2CCCC1CN(C(=O)c1cc3n(n1)CCCN(C(=O)OCc1cc(C(F)(F)F)cc(C(F)(F)F)c1)C3)C2` [Example 230] gave a pIC50 not below 7.00.

In turn, `CCC1(CC)CNCCN1C(=O)c1cc2n(n1)CCCN(C(=O)OCc1cc(Cl)cc(C(F)(F)F)c1)C2` [Example 231] had a negative logarithm of the IC50 (pIC50) not below 7.00.

As for `CN1CCN(C(=O)c2cc3n(n2)CCCN(C(=O)OCc2cc(Cl)cc(C(F)(F)F)c2)C3)C2(CCCC2)C1` [Example 232], the negative logarithm of the IC50 (pIC50) is not below 7.00.

With `CN1CCN(C(=O)c2cc3n(n2)CCCN(C(=O)OCc2cc(C(F)(F)F)cc(C(F)(F)F)c2)C3)C2(CCC2)C1` [Example 233], the pIC50 was not below 7.00.

Turning to `O=C(OCc1cc(Cl)cc(C(F)(F)F)c1)N1CCCn2nc(C(=O)N3CCNCC34CCCC4)cc2C1` [Example 234], the pIC50 was not below 7.00.

Take `O=C(OCc1cc(C(F)(F)F)cc(C(F)(F)F)c1)N1CCCn2nc(C(=O)N3CCNCC34CCC4)cc2C1` [Example 235]: the negative logarithm of the IC50 (pIC50) is not below 7.00.

Consider `CCN1CCN(C(=O)c2cc3n(n2)CCCN(C(=O)OCc2cc(C(F)(F)F)cc(C(F)(F)F)c2)C3)C2(CC2)C1` [Example 237], for which the negative-log IC50 (pIC50) was not below 7.00.

As for `CN1CCN(C(=O)c2cc3n(n2)CCCN(C(=O)OCc2cc(C(F)(F)F)cc(C(F)(F)F)c2)C3)C2(CCCC2)C1` [Example 238], the pIC50 is not below 7.00.

`CC1(C)CNCCN1C(=O)c1cc2n(n1)CCCN(C(=O)OCc1cc(C(F)(F)F)cc(C(F)(F)F)c1)C2` [Example 239] had a pIC50 not below 7.00.

`O=C(OCc1cc(C(F)(F)F)cc(C(F)(F)F)c1)N1CCCn2nc(C(=O)N3CCNCC34CCCC4)cc2C1` [Example 240] gave a pIC50 not below 7.00.

`CCC1(CC)CNCCN1C(=O)c1cc2n(n1)CCCN(C(=O)OCc1cc(C(F)(F)F)cc(C(F)(F)F)c1)C2` [Example 241]: the pIC50 is not below 7.00.

Turning to `CNC1CN(C(=O)c2cc3n(n2)CCCN(C(=O)OCc2cc(C(F)(F)F)cc(C(F)(F)F)c2)C3)C1` [Example 242], the negative logarithm of the IC50 (pIC50) was not below 7.00.

The compound `CNC1CCN(C(=O)c2cc3n(n2)CCCN(C(=O)OCc2cc(C(F)(F)F)cc(C(F)(F)F)c2)C3)C1` (centres unmarked) [Example 243] showed a pIC50 not below 7.00.

Take `CCN1CCN(C(=O)c2cc3n(n2)CCCN(C(=O)OCc2cc(C(F)(F)F)cc(C(F)(F)F)c2)C3)C(C)(C)C1` [Example 244]: the negative logarithm of the IC50 (pIC50) was not below 7.00.

`N#CC1CNCCN1C(=O)c1cc2n(n1)CCCN(C(=O)OCc1cc(C(F)(F)F)cc(C(F)(F)F)c1)C2` (centres unmarked) [Example 245] had a pIC50 not below 7.00.

On to `N#CC1CN(C(=O)c2cc3n(n2)CCCN(C(=O)OCc2cc(C(F)(F)F)cc(C(F)(F)F)c2)C3)CCN1` (centres unmarked) [Example 246], for which the pIC50 was not below 7.00.

`C[C@H]1CNC[C@H](C)N1C(=O)c1cc2n(n1)CCCN(C(=O)OCc1cc(C(F)(F)F)cc(C(F)(F)F)c1)C2` [Example 247] gave a pIC50 not below 7.00.

The compound `C[C@@H]1CNC[C@@H](C)N1C(=O)c1cc2n(n1)CCCN(C(=O)OCc1cc(C(F)(F)F)cc(C(F)(F)F)c1)C2` [Example 248] had a pIC50 not below 7.00.

In turn, `CC1CNCC(C)N1C(=O)c1cc2n(n1)CCCN(C(=O)OCc1cc(C(F)(F)F)cc(C(F)(F)F)c1)C2` (centres unmarked) [Example 249] gave a pIC50 not below 7.00.

Regarding `O=C(CCl)c1cc2n(n1)CCCN(C(=O)OCc1cc(Cl)cc(C(F)(F)F)c1)C2` [Example 250, 3-Chloro-5-(trifluoromethyl)benzyl 2-(2-chloroacetyl)-7,8-dihydro-4H-pyrazolo[1,5-a][1,4]diazepine-5(6H)-carboxylate], the pIC50 was not below 7.00.

On to `O=C(OCc1cc(C(F)(F)F)cc(C(F)(F)F)c1)N1CCn2nc(C3CN4CCC[C@H]4CO3)cc2C1` (stereo partly drawn) [Example 255, 3,5-bis(trifluoromethyl)benzyl 2-((8aS)-hexahydro-1H-pyrrolo[2,1-c][1,4]oxazin-3-yl)-6,7-dihydropyrazolo[1,5-a]pyrazine-5(4H)-carboxylate], for which the pIC50 was not below 7.00.

The record behind these values is patent US20160039825A1 (BIOGEN MA INC., priority 2013, published 2016).
